Measured values reported in article PMC7340540, “Crystal structures and calorimetry reveal catalytically relevant binding mode of coproporphyrin and coproheme in coproporphyrin ferrochelatase” (The FEBS journal, 2019).

Target: T1, LmCpfC (Listeria monocytogenes, UniProt Q8Y565)
T1 construct: gene cpfC; full length in pET21a(+) (BamHI/XhoI), C-terminal 6xHis-tag kept, vector N-terminal residues; E. coli BL21 Gold; 37 kDa theoretical, 38 kDa by MALS; monomer
T1 sequence (Q8Y565 1-309): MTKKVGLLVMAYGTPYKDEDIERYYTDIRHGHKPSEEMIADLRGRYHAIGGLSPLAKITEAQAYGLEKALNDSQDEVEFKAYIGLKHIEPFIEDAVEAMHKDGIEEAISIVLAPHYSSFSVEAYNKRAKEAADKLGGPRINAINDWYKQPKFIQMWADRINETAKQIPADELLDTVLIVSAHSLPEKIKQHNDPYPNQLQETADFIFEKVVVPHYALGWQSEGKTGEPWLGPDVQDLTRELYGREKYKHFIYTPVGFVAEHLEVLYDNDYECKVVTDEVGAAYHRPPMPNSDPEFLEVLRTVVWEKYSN
Experiment: stopped-flow UV-vis, […] nm, KD = koff/kon
Type: binding

For `CC1=C(CCC(=O)O)c2cc3nc(cc4[nH]c(cc5[nH]c(cc1n2)c(C)c5CCC(=O)O)c(CCC(=O)O)c4C)C(CCC(=O)O)=C3C` [coproporphyrin III], the Kd was 2000 nM.
